According to patent US10385103B2, “Cell-permeable (ICP)-SOCS3 recombinant protein and uses thereof” (CELLIVERY THERAPEUTICS, INC., priority 2014, dated 2019):

Tested on: RAW 264.7 cells
Assay: Quantitative cell-permeability of FITC-labeled aMTD- or rPeptide-fused CRA recombinant proteins (flow cytometry)
Assay type: cell-based
Settings: for Relative Ratio to aMTD AVE: cell-permeability of rPeptide-fused CRA recombinant protein relative to average of 240 aMTDs
Summary of the method: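 RAW 264.7 cells were exposed to 10 μM FITC-labeled recombinant proteins, consisting of a non-functional cargo fused to aMTD or rPeptide sequences, for 1 hour at 37° C. Cells were washed three times in cold PBS and treated with 0.25% tripsin/EDTA for 20 minutes at 37° C. to strip surface-bound protein, then uptake was measured by flow cytometry.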

[1] = cell-permeability of aMTD-fused CRA recombinant protein relative to negative control (A: rP38)
[2] = cell-permeability of aMTD-fused CRA recombinant protein relative to reference CPP (B: MTM12)
[3] = cell-permeability of aMTD-fused CRA recombinant protein relative to reference CPP (C: MTD85)
[4] = cell-permeability relative to negative control rP38 (A type), aMTD-fused CRA recombinant protein, 10 μM FITC-labeled, 1 hour, 37° C., RAW 264.7 cells
[5] = cell-permeability relative to reference CPP MTD85 (C type), aMTD-fused CRA recombinant protein, 10 μM FITC-labeled, 1 hour, 37° C., RAW 264.7 cells
[6] = cell-permeability relative to reference CPP MTM12 (B type), aMTD-fused CRA recombinant protein, 10 μM FITC-labeled, 1 hour, 37° C., RAW 264.7 cells
[7] = 10 μM FITC-labeled, 1 hour, 37° C., RAW 264.7 cells

603 (VLVALAAPVIAP; Amino acid Sequence of aMTD603) [compound 603]
Relative Ratio (Fold) A [1]: 54.1 Fold | Relative Ratio (Fold) B [2]: 36.1 Fold | Relative Ratio (Fold) C [3]: 18.2 Fold

870 (VLVAAVLPIAAP; Amino acid Sequence of aMTD870) [compound 870]
Relative Ratio (Fold) A [1]: 16.6 Fold | Relative Ratio (Fold) B [2]: 11.1 Fold | Relative Ratio (Fold) C [3]: 5.6 Fold

664 (ILIAIAIPAAAP; Amino acid Sequence of aMTD664) [compound 664]
Relative Ratio (Fold) A [4]: 5.7 Fold | Relative Ratio (Fold) C [5]: 1.9 Fold | Relative Ratio (Fold) B [6]: 3.8 Fold

522 (ALLVIAVPAVAP; Amino acid Sequence of aMTD522) [compound 522]
Relative Ratio (Fold) A [1]: 22.7 Fold | Relative Ratio (Fold) B [2]: 15.2 Fold | Relative Ratio (Fold) C [3]: 7.7 Fold

846 (IAVAVAAPLLVP; Amino acid Sequence of aMTD846) [compound 846]
Relative Ratio (Fold) A [1]: 11.7 Fold | Relative Ratio (Fold) B [2]: 6.8 Fold | Relative Ratio (Fold) C [3]: 4.0 Fold

902 (ALVAPLLAVAVP; Amino acid Sequence of aMTD902) [compound 902]
Relative Ratio (Fold) A [1]: 7.6 Fold | Relative Ratio (Fold) B [2]: 5.1 Fold | Relative Ratio (Fold) C [3]: 2.6 Fold

938 (VPVLLPVVVPVP; Amino acid Sequence of rPeptide ID 938) [compound 938]
Relative Ratio to aMTD AVE [7]: 0.28

505 (AIIIVIAPAAAP; Amino acid Sequence of aMTD505) [compound 505]
Relative Ratio (Fold) A [1]: 12.4 Fold | Relative Ratio (Fold) B [2]: 8.3 Fold | Relative Ratio (Fold) C [3]: 4.2 Fold

443 (ALAALVPVALVP; Amino acid Sequence of aMTD443) [compound 443]
Relative Ratio (Fold) A [1]: 8.0 Fold | Relative Ratio (Fold) B [2]: 5.3 Fold | Relative Ratio (Fold) C [3]: 2.7 Fold

830 (IALVAAPVALVP; Amino acid Sequence of aMTD830) [compound 830]
Relative Ratio (Fold) A [4]: 5.3 Fold | Relative Ratio (Fold) C [5]: 1.8 Fold | Relative Ratio (Fold) B [6]: 3.5 Fold

83 (LAVAAPLALALP; Amino acid Sequence of aMTD83) [compound 83]
Relative Ratio (Fold) A [4]: 1.4 Fold | Relative Ratio (Fold) C [5]: 0.5 Fold | Relative Ratio (Fold) B [6]: 0.9 Fold

661 (AAILAPIVAALP; Amino acid Sequence of aMTD661) [compound 661]
Relative Ratio (Fold) A [1]: 21.4 Fold | Relative Ratio (Fold) B [2]: 14.3 Fold | Relative Ratio (Fold) C [3]: 7.2 Fold

746 (VAIIVVAPALAP; Amino acid Sequence of aMTD746) [compound 746]
Relative Ratio (Fold) A [1]: 7.6 Fold | Relative Ratio (Fold) B [2]: 4.4 Fold | Relative Ratio (Fold) C [3]: 2.6 Fold

261 (LVLVPLLAAAAP; Amino acid Sequence of aMTD261) [compound 261]
Relative Ratio (Fold) A [1]: 18.5 Fold | Relative Ratio (Fold) B [2]: 12.3 Fold | Relative Ratio (Fold) C [3]: 6.2 Fold

466 (IIAAAAPLAIIP; Amino acid Sequence of rPeptide ID 466) [compound 466]
Relative Ratio to aMTD AVE [7]: 0.52

602 (VIVALAAPVLAP; Amino acid Sequence of aMTD602) [compound 602]
Relative Ratio (Fold) A [1]: 9.9 Fold | Relative Ratio (Fold) B [2]: 5.8 Fold | Relative Ratio (Fold) C [3]: 3.4 Fold

141 (AVIVLPALAVAP; Amino acid Sequence of aMTD141) [compound 141]
Relative Ratio (Fold) A [1]: 9.4 Fold | Relative Ratio (Fold) B [2]: 6.3 Fold | Relative Ratio (Fold) C [3]: 3.2 Fold

863 (AAVVLLPIIAAP; Amino acid Sequence of aMTD863) [compound 863]
Relative Ratio (Fold) A [1]: 13.8 Fold | Relative Ratio (Fold) B [2]: 9.3 Fold | Relative Ratio (Fold) C [3]: 4.7 Fold

724 (VAVLAVLPALAP; Amino acid Sequence of aMTD724) [compound 724]
Relative Ratio (Fold) A [1]: 47.5 Fold | Relative Ratio (Fold) B [2]: 31.8 Fold | Relative Ratio (Fold) C [3]: 16.1 Fold

843 (AVLVLVAPAAAP; Amino acid Sequence of aMTD843) [compound 843]
Relative Ratio (Fold) A [1]: 26.4 Fold | Relative Ratio (Fold) B [2]: 17.7 Fold | Relative Ratio (Fold) C [3]: 8.9 Fold

766 (IVVIAVAPAVAP; Amino acid Sequence of aMTD766) [compound 766]
Relative Ratio (Fold) A [1]: 12.9 Fold | Relative Ratio (Fold) B [2]: 8.6 Fold | Relative Ratio (Fold) C [3]: 4.4 Fold

405 (LAAAVIPVAILP; Amino acid Sequence of aMTD405) [compound 405]
Relative Ratio (Fold) A [1]: 22.2 Fold | Relative Ratio (Fold) B [2]: 14.8 Fold | Relative Ratio (Fold) C [3]: 7.5 Fold

383 (VIVALAPALLAP; Amino acid Sequence of aMTD383) [compound 383]
Relative Ratio (Fold) A [1]: 11.6 Fold | Relative Ratio (Fold) B [2]: 7.7 Fold | Relative Ratio (Fold) C [3]: 3.9 Fold

582 (VAVALIVPALAP; Amino acid Sequence of aMTD582) [compound 582]
Relative Ratio (Fold) A [1]: 30.6 Fold | Relative Ratio (Fold) B [2]: 20.4 Fold | Relative Ratio (Fold) C [3]: 10.3 Fold

501 (VIVALAVPALAP; Amino acid Sequence of aMTD501) [compound 501]
Relative Ratio (Fold) A [1]: 21.5 Fold | Relative Ratio (Fold) B [2]: 14.4 Fold | Relative Ratio (Fold) C [3]: 7.2 Fold

312 (VALLAPAVVVAP; Amino acid Sequence of aMTD912) [compound 312]
Relative Ratio (Fold) A [1]: 19.9 Fold | Relative Ratio (Fold) B [2]: 13.3 Fold | Relative Ratio (Fold) C [3]: 6.7 Fold

561 (AAVAIVLPAVVP; Amino acid Sequence of aMTD561) [compound 561]
Relative Ratio (Fold) A [4]: 3.9 Fold | Relative Ratio (Fold) C [5]: 1.3 Fold | Relative Ratio (Fold) B [6]: 2.6 Fold

305 (IALAAPILLAAP; Amino acid Sequence of aMTD305) [compound 305]
Relative Ratio (Fold) A [4]: 4.8 Fold | Relative Ratio (Fold) C [5]: 1.6 Fold | Relative Ratio (Fold) B [6]: 3.2 Fold

302 (LALAPALALLAP; Amino acid Sequence of aMTD302) [compound 302]
Relative Ratio (Fold) A [1]: 10.2 Fold | Relative Ratio (Fold) B [2]: 6.8 Fold | Relative Ratio (Fold) C [3]: 3.4 Fold

786 (LVAIAPLAVLAP; Amino acid Sequence of aMTD786) [compound 786]
Relative Ratio (Fold) A [1]: 21.2 Fold | Relative Ratio (Fold) B [2]: 14.2 Fold | Relative Ratio (Fold) C [3]: 7.2 Fold

329 (LPVLVPVVPVVP; Amino acid Sequence of rPeptide ID 329) [compound 329]
Relative Ratio to aMTD AVE [7]: 0.23

12 (LLAAVPAVLLAP; Amino acid Sequence of aMTD12) [compound 12]
Relative Ratio (Fold) A [4]: 2.2 Fold | Relative Ratio (Fold) C [5]: 0.7 Fold | Relative Ratio (Fold) B [6]: 1.5 Fold

706 (IVAVALLPAVAP; Amino acid Sequence of aMTD706) [compound 706]
Relative Ratio (Fold) A [1]: 12.0 Fold | Relative Ratio (Fold) B [2]: 7.0 Fold | Relative Ratio (Fold) C [3]: 4.1 Fold

885 (LVAIAPAVAVLP; Amino acid Sequence of aMTD885) [compound 885]
Relative Ratio (Fold) A [1]: 28.3 Fold | Relative Ratio (Fold) B [2]: 19.0 Fold | Relative Ratio (Fold) C [3]: 9.6 Fold

705 (IVAVALLPALAP; Amino acid Sequence of aMTD705) [compound 705]
Relative Ratio (Fold) A [1]: 29.6 Fold | Relative Ratio (Fold) B [2]: 19.1 Fold | Relative Ratio (Fold) C [3]: 9.7 Fold

11 (VVALAPALAALP; Amino acid Sequence of aMTD11) [compound 11]
Relative Ratio (Fold) A [1]: 9.5 Fold | Relative Ratio (Fold) B [2]: 6.3 Fold | Relative Ratio (Fold) C [3]: 3.2 Fold

225 (VAALLPAAAVLP; Amino acid Sequence of aMTD225) [compound 225]
Relative Ratio (Fold) A [1]: 18.3 Fold | Relative Ratio (Fold) B [2]: 12.2 Fold | Relative Ratio (Fold) C [3]: 6.2 Fold

585 (ALIVAIAPALVP; Amino acid Sequence of aMTD585) [compound 585]
Relative Ratio (Fold) A [4]: 6.6 Fold | Relative Ratio (Fold) C [5]: 2.2 Fold | Relative Ratio (Fold) B [6]: 4.4 Fold

865 (AVLVIAVPAIAP; Amino acid Sequence of aMTD865) [compound 865]
Relative Ratio (Fold) A [1]: 11.3 Fold | Relative Ratio (Fold) B [2]: 7.5 Fold | Relative Ratio (Fold) C [3]: 3.8 Fold

850 (LVIALAAPVALP; Amino acid Sequence of aMTD850) [compound 850]
Relative Ratio (Fold) A [1]: 8.8 Fold | Relative Ratio (Fold) B [2]: 5.9 Fold | Relative Ratio (Fold) C [3]: 3.0 Fold

183 (LLAAPVVIALAP; Amino acid Sequence of aMTD183) [compound 183]
Relative Ratio (Fold) A [4]: 6.0 Fold | Relative Ratio (Fold) C [5]: 2.0 Fold | Relative Ratio (Fold) B [6]: 4.0 Fold

285 (AIVLLPAAVVAP; Amino acid Sequence of aMTD285) [compound 285]
Relative Ratio (Fold) A [1]: 13.3 Fold | Relative Ratio (Fold) B [2]: 9.9 Fold | Relative Ratio (Fold) C [3]: 4.5 Fold

38 (YYNQSTCGGQCY; Amino acid Sequence of rPeptide ID 38) [compound 38]
Relative Ratio to aMTD AVE [7]: 0.05

464 (AVVILVPLAAAP; Amino acid Sequence of aMTD464) [compound 464]
Relative Ratio (Fold) A [1]: 22.3 Fold | Relative Ratio (Fold) B [2]: 14.9 Fold | Relative Ratio (Fold) C [3]: 7.5 Fold
